Results on 16 molecules are retold here after ChEMBL document CHEMBL1155494, “New stilbene dimers against amyloid fibril formation” (Bioorg Med Chem Lett, 2010).

A short description of assay [1]: Inhibition of amyloid beta 25-35 fibril formation at 10 uM by using UV-visible measurements and electron microscopy analysis.
Assay [2] is described as follows: Inhibition of amyloid beta 25-35 fibril formation by using UV-visible measurements and electron microscopy analysis.

In general, inhibition refers to how much of the control response was suppressed. Higher therefore signals a response far below the control. The term EC50 denotes the concentration at which the effect is half-maximal. Low values mean greater potency, high ones weaker potency.

The molecule `COc1cc(/C=C/C(=O)CC(=O)/C=C/c2ccc(O)c(OC)c2)ccc1O` [CURCUMIN] yielded an inhibition in assay [1] of 45%. Also, in assay [2], a half-maximal effect (EC50) was put at 10 µM.

`Oc1cc(O)cc(-c2cc3ccc(O)cc3o2)c1` had an inhibition in assay [1] of 9%. The same measure, in the same setting: the value for `Oc1cc(O)cc(/C=C/c2ccc(O)cc2O)c1` was 32%. Take `OC[C@H]1O[C@@H](Oc2cc(O)cc(/C=C/c3ccc(O)cc3)c2)[C@H](O)[C@@H](O)[C@@H]1O` [PICEID]: the inhibition in assay [1] was determined as 62%. For the same molecule, the EC50 in assay [2] is 6 µM. With `Oc1ccc(/C=C/c2cc(O)cc3c2[C@H](c2cc(O)cc(O)c2)[C@@H](c2ccc(O)cc2)O3)cc1`, the inhibition in assay [1] was 27%. The same measure, in the same setting: the value for `OC[C@H]1O[C@@H](Oc2ccc(/C=C/c3cc(O)cc(O)c3)cc2)[C@H](O)[C@@H](O)[C@@H]1O` was 11%; that for `COc1cc(/C=C/c2cc(O)c3c(c2)O[C@H](c2ccc(O)c(OC)c2)[C@H]3c2cc(O)cc(O)c2)ccc1O` was 40%.

For the molecule `Oc1ccc(/C=C/c2cc(O)cc3c2[C@H](c2cc(O)cc(O)c2)[C@@H](c2ccc(O)c(O)c2)O3)cc1` [SCIRPUSIN A], the inhibition in assay [1] was 80%. A half-maximal response in assay [2] (EC50) required 0.7 µM. `Oc1cc(O)cc(/C=C/c2ccc(O)c(O)c2)c1` showed an inhibition in assay [1] of 25%.

Turning to `Oc1ccc(/C=C/c2cc(O)cc(O)c2)cc1` [RESVERATROL], the inhibition in assay [1] was 63%. Moreover, the EC50 in assay [2] was 6 µM. In the same order, the values of `OC[C@H]1O[C@@H](Oc2cc(/C=C/c3ccc(O)cc3)c3c(c2)O[C@H](c2ccc(O)cc2)[C@H]3c2cc(O)cc(O)c2)[C@H](O)[C@@H](O)[C@@H]1O` are 93% and 0.2 µM. In turn, `OC[C@@H]1O[C@H](Oc2ccc(/C=C/c3cc(O)c4c(c3)O[C@H](c3ccc(O[C@H]5O[C@@H](CO)[C@H](O)[C@@H](O)[C@@H]5O)cc3)[C@H]4c3cc(O)cc(O)c3)cc2)[C@@H](O)[C@H](O)[C@H]1O` [12,GNEMENOSIDE A] registered an inhibition in assay [1] of 46%. In assay [2], this molecule registered an EC50 of 10 µM. The molecule `COc1cc(/C=C/c2ccc(O)cc2)cc(OC)c1` gave an inhibition in assay [1] of 35%.

In assay [1], `COc1cc(/C=C/c2cc(O)cc(O)c2)ccc1O[C@@H]1O[C@H](CO)[C@@H](O)[C@H](O)[C@H]1O` came in with an inhibition of 28%. On to `Oc1ccc([C@H]2Oc3cc(O)c([C@@H]4[C@@H](c5cc6c(cc5O)O[C@H](c5ccc(O)cc5)[C@H]6c5cc(O)cc(O)c5)[C@H](c5ccc(O)cc5)O[C@@H]4c4ccc(O)cc4)cc3[C@@H]2c2cc(O)cc(O)c2)cc1`, for which the inhibition in assay [1] came to 17%. As for `Oc1ccc(C2Oc3ccc(/C=C/c4cc(O)cc5c4[C@H](c4cc(O)cc(O)c4)[C@@H](c4ccc(O)cc4)O5)cc3[C@@H]2c2cc(O)cc3c2[C@H](c2cc(O)cc(O)c2)C(c2ccc(O)cc2)O3)cc1` (some centres not stated), the inhibition in assay [1] came out at 32%.
